# Measured values as given in patent EP4737445A1, “NOVEL SATURATED HETEROCYCLE-SUBSTITUTED HETEROARYL-CARBONOHYDRAZONOYL DICYANIDE COMPOUND AND USE THEREOF” (Korea Institute of Science and Technology, priority 2023, dated 2025).
# Assays:
# [1] = target: T1, CYP1A2 (Homo sapiens, UniProt P05177); experiment: CYP isoenzyme activity inhibition in human liver microsomes, CYP1A2; assay type: in vitro ADME; conditions: 10 µM compound; human liver microsomes 0.25 mg/mL; relative to control without compound
# T1 construct: human liver microsomes (0.25 mg/mL); from tissue; host or cells: human liver microsomes
# T1 sequence (P05177 1-516): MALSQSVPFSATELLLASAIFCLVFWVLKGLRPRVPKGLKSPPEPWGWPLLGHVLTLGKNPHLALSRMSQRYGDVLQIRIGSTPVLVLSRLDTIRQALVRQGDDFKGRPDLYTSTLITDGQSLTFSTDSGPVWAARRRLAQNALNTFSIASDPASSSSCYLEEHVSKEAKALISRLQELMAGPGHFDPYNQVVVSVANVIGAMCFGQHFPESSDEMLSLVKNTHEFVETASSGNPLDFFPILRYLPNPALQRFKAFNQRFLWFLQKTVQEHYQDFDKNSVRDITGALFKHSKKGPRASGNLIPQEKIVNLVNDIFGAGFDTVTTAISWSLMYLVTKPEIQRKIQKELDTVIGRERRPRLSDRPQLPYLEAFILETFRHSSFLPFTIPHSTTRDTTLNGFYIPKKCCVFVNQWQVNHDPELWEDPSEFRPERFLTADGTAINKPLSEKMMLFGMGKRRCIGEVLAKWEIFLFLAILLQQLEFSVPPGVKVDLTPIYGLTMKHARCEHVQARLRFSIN
# Method: (§1) The CYP isoenzyme activity inhibitory effect by the compounds prepared according to Examples 1 to 46 was confirmed. Specifically, human liver microsomes (0.25 mg/mL), 0.1 M phosphate buffer solution (pH 7.4), a substrate drug cocktail of five drug metabolizing enzymes (Phenacetin 50 µM, Diclofenac 10 µM, S-mephenytoin 100 µM, Dextromethorphan 5 µM, and Midazolam 2.5 µM), and the compounds were added at concentrations of 0 or 10 µM, respectively, and pre-incubated at 37°C for 5 minutes, and then NADPH generation system solution was added and incubated at 37°C for an additional 15 minutes. Thereafter, an acetonitrile solution containing an internal standard (Terfenadine) was added to terminate the reaction, and after centrifugation for 5 minutes (14,000 rpm, 4°C), the supernatant was injected into an LC-MS/MS system to simultaneously analyze the metabolites of the substrate drugs, thereby evaluating the drug metabolizing enzyme inhibitory activity.
# (§2) The metabolites of each CYP isoenzyme marker drug generated through the reaction were analyzed using a Shimadzu Nexera XR system and TSQ vantage (Thermo). A Kinetex C18 (2.1 × 100 mm, 2.6 µm, particle size; Phenomenex, USA) was used as the HPLC column, and (A) distilled water containing 0.1% formic acid and (B) acetonitrile containing 0.1% formic acid were used as mobile phases, and a gradient program as shown in Table 6 below was applied.
# (§3) The generated metabolites were quantified using MRM (Multiple Reaction Monitoring) quantitative mode, and Xcalibur (version 1.6.1) was used for data analysis. To show the CYP isoenzyme activity inhibitory effect of the novel compounds prepared according to the Examples of the disclosure, the % activity of CYP isoenzymes relative to the control group without compound addition is shown in Table 6 below. Additionally, to confirm the difference in effect according to substituents, Comparative Compounds 1 and 5, which are two compounds that share a similar parent nucleus structure with Compounds 1 to 46 of the disclosure while Cy is substituted with aromatic heteroaryl instead of saturated heterocyclyl, were selected as comparative compounds and their activities are shown together.
# [2] = tested on: TDP-43 BiFC cells; experiment: Cell viability (stained nuclei count) in TDP-43-BiFC cells; assay type: cell-based; conditions: Forskolin-only group = 100%
# Method: To screen for new TDP-43 aggregation inhibitors, a TDP-43-BiFC cell model that facilitates observation of TDP-43 aggregate formation in living cells was used. Specifically, TDP-43-BiFC cells were dispensed into a 384-well plate, and the next day, the compounds prepared according to Examples 1 to 46 were treated at concentrations of 3 and 10 µM, respectively, together with Forskolin (treatment concentration 30 µM), which is a compound that induces TDP-43 aggregation by activating the phosphorylation enzyme PKA. After 48 hours, nuclei within cells were stained using Hoechst (treatment concentration 1 µg/mL), and BiFC fluorescence intensity was automatically quantified using Operetta (PerkinElmer) to count the stained nuclei in each well from the entire plate. The group treated only with Forskolin, which induces TDP-43 aggregation, was set as the reference point with 100% TDP-43 aggregation state, and the effect was confirmed by the formula "(BiFC fluorescence intensity by the compounds synthesized according to the Examples of the disclosure - fluorescence intensity of the untreated control group)/(fluorescence intensity of the control group treated only with Forskolin that induces TDP-43 aggregation - fluorescence intensity of the untreated control group) × 100". In addition, the degree of cytotoxicity induced by the newly synthesized compounds was also calculated using the formula "(number of stained nuclei in the compound-treated group/number of stained nuclei in the Forskolin-treated group) × 100", with the group treated only with Forskolin as the reference point at 100% viability. From the treatment results, substances that inhibit intracellular TDP-43 aggregation were identified through screening from a series of candidates based on the criteria of 80% or more TDP-43 aggregation inhibition and 60% cell viability at a compound treatment concentration of 3 µM.
# Furthermore, to confirm the TDP-43 aggregation inhibitory effect according to the concentration of the compounds screened in Experimental Example 3, the screened compounds were treated to […] at concentrations of 0.003, 0.01, 0.03, 0.1, 0.3, 1, 3, and 10 µM, respectively, together with Forskolin (treatment concentration 30 µM), which is a TDP-43 aggregation-inducing substance. After 48 hours, cell images were examined to analyze the TDP-43 aggregation reaction and degree of cytotoxicity. The IC50 and toxicity of the compounds were analyzed by nonlinear regression analysis using Prism software (GraphPad). The calculated results for representative compounds are shown in Table 4 below: TDP-43 protein aggregation inhibitory effect and cell viability of novel compounds.
# [3] = target: T2, CYP2C9 (Homo sapiens, UniProt P11712); experiment: CYP isoenzyme activity inhibition in human liver microsomes, CYP2C9; assay type: in vitro ADME; conditions: 10 µM compound; human liver microsomes 0.25 mg/mL; relative to control without compound
# T2 construct: human liver microsomes (0.25 mg/mL); from tissue; host or cells: human liver microsomes
# Method: as §1, §2, §3
# [4] = target: T3, CYP2C19 (Homo sapiens, UniProt P33261); experiment: CYP isoenzyme activity inhibition in human liver microsomes, CYP2C19; assay type: in vitro ADME; conditions: 10 µM compound; human liver microsomes 0.25 mg/mL; relative to control without compound
# T3 construct: human liver microsomes (0.25 mg/mL); from tissue; host or cells: human liver microsomes
# Method: as §1, §2, §3
# T2 sequence (P11712 whole entry): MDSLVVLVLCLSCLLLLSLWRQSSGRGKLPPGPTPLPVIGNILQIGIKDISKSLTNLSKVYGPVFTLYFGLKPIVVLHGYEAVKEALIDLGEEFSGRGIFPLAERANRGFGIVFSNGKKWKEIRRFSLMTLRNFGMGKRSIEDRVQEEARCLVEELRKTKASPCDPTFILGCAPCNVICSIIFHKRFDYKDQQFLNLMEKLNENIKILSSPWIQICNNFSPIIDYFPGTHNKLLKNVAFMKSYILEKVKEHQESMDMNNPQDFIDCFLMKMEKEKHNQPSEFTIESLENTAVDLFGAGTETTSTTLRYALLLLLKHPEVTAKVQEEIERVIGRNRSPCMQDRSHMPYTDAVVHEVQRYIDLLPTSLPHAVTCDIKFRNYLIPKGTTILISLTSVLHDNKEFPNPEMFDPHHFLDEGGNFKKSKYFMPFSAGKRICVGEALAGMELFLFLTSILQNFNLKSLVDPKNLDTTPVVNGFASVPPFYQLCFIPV
# T3 sequence (P33261 whole entry): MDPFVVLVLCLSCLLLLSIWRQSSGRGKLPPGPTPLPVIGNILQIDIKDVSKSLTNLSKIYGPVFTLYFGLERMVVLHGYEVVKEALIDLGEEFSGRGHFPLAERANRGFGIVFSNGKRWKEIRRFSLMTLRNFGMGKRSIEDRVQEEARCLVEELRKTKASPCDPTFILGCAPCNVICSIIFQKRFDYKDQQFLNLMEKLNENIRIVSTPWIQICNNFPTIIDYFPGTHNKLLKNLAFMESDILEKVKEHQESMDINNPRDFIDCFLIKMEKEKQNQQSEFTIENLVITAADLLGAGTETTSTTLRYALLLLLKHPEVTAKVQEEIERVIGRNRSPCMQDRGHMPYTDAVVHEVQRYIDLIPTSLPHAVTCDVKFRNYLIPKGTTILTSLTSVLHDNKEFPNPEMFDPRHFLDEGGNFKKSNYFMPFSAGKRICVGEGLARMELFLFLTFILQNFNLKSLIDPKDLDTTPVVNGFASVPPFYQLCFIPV
Structure (SMILES),CYP1A2 (% activity) [1],Cell viability (%) (@ 3 uM) [2],CYP2C9 (% activity) [3],CYP2C19 (% activity) [4]
"N#CC(C#N)=NNc1ccc2sc(N3CCOCC3)nc2c1 [Compound 1, (2-morpholinobenzo[d]thiazol-5-yl)carbonohydrazonoyl dicyanide]",80.2 % activity,87.5%,82.5 % activity,> 100 % activity
"N#CC(C#N)=NNc1ccc2nc(N3CCOCC3)sc2c1 [Compound 2, (2-morpholinobenzo[d]thiazol-6-yl)carbonohydrazonoyl dicyanide]",81.7 % activity,87.5%,95.1 % activity,96.7 % activity
"N#CC(C#N)=NNc1ccc2oc(N3CCOCC3)nc2c1 [Compound 3, (2-morpholinobenzo[d]oxazol-5-yl)carbonohydrazonoyl dicyanide]",99.9 % activity,102.3%,> 100 % activity,> 100 % activity
"N#CC(C#N)=NNc1ccc2nc(N3CCOCC3)oc2c1 [Compound 4, (2-morpholinobenzo[d]oxazol-6-yl)carbonohydrazonoyl dicyanide]",86.8 % activity,104.2%,93.2 % activity,93.4 % activity
"Cn1c(N2CCOCC2)nc2ccc(NN=C(C#N)C#N)cc21 [Compound 5, (1-methyl-2-morpholino-1H-benzo[d]imidazol-6-yl)carbonohydrazonoyl dicyanide]",84.3 % activity,109.2%,98 % activity,90.2 % activity
"Cn1c(N2CCOCC2)nc2cc(NN=C(C#N)C#N)ccc21 [Compound 6, (1-methyl-2-morpholino-1H-benzo[d]imidazol-5-yl)carbonohydrazonoyl dicyanide]",92.3 % activity,98.1%,> 100 % activity,98.4 % activity
"CN1CCN(c2nc3ccc(NN=C(C#N)C#N)cc3s2)CC1 [Compound 8, (2-(4-methylpiperazin-1-yl)benzo[d]thiazol-6-yl)carbonohydrazonoyl dicyanide]",91.8 % activity,83.0%,> 100 % activity,> 100 % activity
"COC1CCN(c2nc3ccc(NN=C(C#N)C#N)cc3s2)CC1 [Compound 9, (2-(4-methoxypiperidin-1-yl)benzo[d]thiazol-6-yl)carbonohydrazonoyl dicyanide]",68.9 % activity,76.2%,60.7 % activity,86.9 % activity
"CC1CN(c2nc3ccc(NN=C(C#N)C#N)cc3s2)CC(C)O1 (stereo not drawn) [Compound 10, (2-(2,6-dimethylmorpholino)benzo[d]thiazol-6-yl)carbonohydrazonoyl dicyanide]",68.4 % activity,83.8%,76.8 % activity,83.6 % activity
"N#CC(C#N)=NNc1ccc2nc(N3C4CCC3COC4)sc2c1 [Compound 11, (2-(3-oxa-8-azabicyclo[3.2.1]octan-8-yl)benzo[d]thiazol-6-yl)carbonohydrazonoyl dicyanide]",83.7 % activity,80.9%,70.2 % activity,80.3 % activity
"CC1CN(c2nc3ccc(NN=C(C#N)C#N)cc3s2)CCO1 (stereo not drawn) [Compound 12, (2-(2-methylmorpholino)benzo[d]thiazol-6-yl)carbonohydrazonoyl dicyanide]",74.9 % activity,73.0%,65.1 % activity,84.8 % activity
"CC1COCCN1c1nc2ccc(NN=C(C#N)C#N)cc2s1 (stereo not drawn) [Compound 13, (2-(3-methylmorpholino)benzo[d]thiazol-6-yl)carbonohydrazonoyl dicyanide]",83 % activity,63.6%,75 % activity,83.3 % activity
"CN1CCN(c2nc3ccc(NN=C(C#N)C#N)cc3o2)CC1 [Compound 14, (2-(4-methylpiperazin-1-yl)benzo[d]oxazol-6-yl)carbonohydrazonoyl dicyanide]",89.7 % activity,101.4%,88 % activity,95.5 % activity
"CC1CN(c2nc3ccc(NN=C(C#N)C#N)cc3o2)CCO1 (stereo not drawn) [Compound 15, (2-(2-methylmorpholino)benzo[d]oxazol-6-yl)carbonohydrazonoyl dicyanide]",80.2 % activity,105.2%,88.6 % activity,87.9 % activity
"CC1COCCN1c1nc2ccc(NN=C(C#N)C#N)cc2o1 (stereo not drawn) [Compound 16, (2-(3-methylmorpholino)benzo[d]oxazol-6-yl)carbonohydrazonoyl dicyanide]",99.9 % activity,97.8%,87 % activity,> 100 % activity
